Where two headings read alike, the source gives them in different places.
What was measured:
Pharmacokinetics in mice = assay type: in vivo, CD-1 Mice; settings: for Cmax / clearance / half-life / AUC(0-t) / Vd: mouse, plasma; for AUC(0-t): read-out: AUC 0-24 hr; for Vd: read-out: Vz
Protocol: The intravenous dosing solutions were administered at 1 mg/kg and were made by dissolving the test article into the formulations shown below. The oral dosing suspensions or solutions were administered at 10 mg/kg and were made by dissolving the test article in the formulations shown below. Blood samples were collected into tubes containing either K2EDTA or sodium heparin and kept chilled on ice block or wet ice immediately following collection and during processing. After centrifugation, the resulting plasma samples were stored in a freezer at −80° C. until samples were analyzed. Pharmacokinetic parameters were determined following measurement of compound concentrations in plasma using standard bioanalytical methods at timepoints ranging from 0 to 24 hours.

NLRP3 inflammasome [1] = target: T1, NLRP3 inflammasome (Homo sapiens, UniProt Q96P20); experiment: NLRP3 inflammasome activation assay in Kupffer cells (LPS priming, nigericin), IL-1β/IL-18 by ELISA; assay type: cell-based; settings: KCs; for IC50: LPS, nigericin, read-out: KC IL-1β IC50
T1 sequence (Q96P20 whole entry): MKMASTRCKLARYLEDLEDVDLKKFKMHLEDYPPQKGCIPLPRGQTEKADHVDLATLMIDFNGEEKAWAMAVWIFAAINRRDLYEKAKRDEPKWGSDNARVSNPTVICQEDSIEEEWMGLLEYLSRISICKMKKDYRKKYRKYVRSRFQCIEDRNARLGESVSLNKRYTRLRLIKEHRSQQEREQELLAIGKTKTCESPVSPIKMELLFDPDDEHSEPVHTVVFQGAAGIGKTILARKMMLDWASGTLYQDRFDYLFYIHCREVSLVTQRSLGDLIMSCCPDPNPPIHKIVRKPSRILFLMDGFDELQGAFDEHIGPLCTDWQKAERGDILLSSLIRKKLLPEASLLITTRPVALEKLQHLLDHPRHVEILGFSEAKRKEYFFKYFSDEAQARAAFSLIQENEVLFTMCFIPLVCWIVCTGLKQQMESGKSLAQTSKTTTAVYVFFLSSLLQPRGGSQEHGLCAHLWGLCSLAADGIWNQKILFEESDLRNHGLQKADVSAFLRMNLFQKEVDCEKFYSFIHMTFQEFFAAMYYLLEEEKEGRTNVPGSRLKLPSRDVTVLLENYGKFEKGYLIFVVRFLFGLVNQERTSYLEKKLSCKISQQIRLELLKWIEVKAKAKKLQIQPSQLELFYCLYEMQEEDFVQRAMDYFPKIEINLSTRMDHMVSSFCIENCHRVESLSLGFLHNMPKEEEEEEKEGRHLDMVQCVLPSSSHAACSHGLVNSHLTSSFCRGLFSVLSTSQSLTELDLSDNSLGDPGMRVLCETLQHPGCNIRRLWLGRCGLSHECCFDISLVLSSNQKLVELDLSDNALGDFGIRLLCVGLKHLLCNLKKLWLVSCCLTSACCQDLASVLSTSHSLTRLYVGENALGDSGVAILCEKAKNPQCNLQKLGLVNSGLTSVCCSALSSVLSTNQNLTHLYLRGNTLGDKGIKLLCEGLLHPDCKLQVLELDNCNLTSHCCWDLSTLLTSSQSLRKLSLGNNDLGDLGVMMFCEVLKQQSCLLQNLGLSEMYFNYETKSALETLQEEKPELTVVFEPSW
Text: (§1) Some of the following assays were used to determine the inhibitory activity of the compounds on the NLRP3 inflammasome using a common inflammasome activation stimuli-nigericin.
Human Kupffer cells (KCs), specialized liver macrophages residing in […], were obtained by gradient isolation from liver specimens harvested post-mortem by Samsara Sciences. Cells were obtained through an IRB approved donor program by Samsara Sciences and all donors tested negative for bacterial and viral infections.
(§2) Cells were then stimulated with 10 uM Nigericin (Sigma Aldrich; InvivoGen) for 1.5 h. Plates were centrifuged at 1,500 rpm for 3 minutes to pellet cells and supernatant was transferred into new plates for subsequent experiments.
(§3) For ELISA assays cells were seeded into 96-well plates. Post study, supernatants were removed and the levels of mature IL-1β, IL-18 and TNFα (Quantikine ELISA, R&D systems) were measured in cell conditioned media by ELISA according to manufacturer's instructions.

NLRP3 inflammasome [2] = target: T1, NLRP3 inflammasome; experiment: NLRP3 inflammasome activation assay in PBMCs (LPS priming, nigericin), IL-1β by ELISA; assay type: cell-based; design: Human peripheral blood mononuclear cells (PBMCs); host or cells: primary human PBMCs from healthy donors; settings: LPS, nigericin, read-out: PBMC IL-1β IC50
Protocol: as §1
Human peripheral blood mononuclear cells (PBMCs), consisting of lymphocytes (T, B and NK cells), monocytes and dendritic cells, were freshly isolated from human peripheral blood from healthy donors. Cells were obtained through an IRB approved donor program by iXCells Biotechnologies where all the donors were tested for bacterial and viral infections. Cells were purified from peripheral blood using ficoll gradient centrifugation.
as §2, §3

[3] = test system: LPS and nigericin stimulated cells; experiment: cells; assay type: cell-based; settings: Homo sapiens, read-out: CTG protective IC50
Protocol: Viability of compound treated cells is measured using CellTiter-Glo® assay (Promega, Madison, Wis.) that measures the ATP content of cells which is proportional to the number of live cells within a well. This is a counter-screen to establish that the reduction of IL-1β levels in LPS and nigericin stimulated and compound treated cells is not due to cytotoxicity, but rather through the inhibition of the inflammasome pathway. Compounds inhibiting NRLP3 inflammasome activation ultimately increase the viability of LPS and nigericin stimulated cells by blocking NLRP3 mediated pyroptosis that would otherwise lead to cell lysis.

TNFα = TNFα levels of LPS and nigericin stimulated cells (counter-screen); assay type: cell-based, human
Protocol: as §3
TNFα levels of LPS and nigericin stimulated cells is measured by HTRF assay (Cisbio, Bedford, Mass.). […] Measuring TNFalpha production also serves as a technical counter-screen to eliminate compounds that interfere with the HTRF reagents. Thus compounds that inhibit both IL-1β and TNFα levels are triaged for either being non-selective for inflammasome or interfering with the HTRF readout.

[4] = Human microsomal stability (Eh); assay type: in vitro ADME; settings: hepatic extraction ratio; 0.5 mg/mL microsomal protein, 1 μM, NADPH; liver blood flow 20.7 mL/min/kg
Protocol: The stock solutions of test article and positive control were prepared at a concentration of 10 mM using DMSO as diluents. All stock solutions were then diluted to working concentrations at 0.25 mM with 70% acetonitrile. The cofactor used in this study was NADPH regenerating system, that was composed of 6.5 mM NADP, 16.5 mM G-6-P, 3 U/mL G-6-P D. The quench reagent was consisted of acetonitrile containing tolbutamide and propanolol (serve as internal standard). Incubation mixtures containing 0.5 mg/mL liver microsomal protein and […] test article/positive control in 100 mM potassium phosphate buffer.
The 0-minute samples were prepared by addition of an 80 μL aliquot of each incubation mixture to 300 μL quench reagent to precipitate proteins. The samples were vortexed, and then a 20 μL aliquot of the NADPH regenerating system was added in. The reaction was initiated by addition of 80 μL of the NADPH regenerating system to 320 μL of each incubation mixture. The final incubation conditions achieved in 400 μL are: 0.5 mg/mL microsomal protein, 1 μM test article/positive control, 1.3 mM NADP, 3.3 mM glucose 6 phosphate, 0.6 U/mL glucose 6 phosphate dehydrogenase. The mixtures were incubated in a 37° C. water bath with gentle shaking. A 100 μL aliquot of each mixture was removed at 10, 30, 90 minutes to a clean 96-well plate which contains 300 μL quench reagent to precipitate proteins, and centrifuged (4000×g, 10 min). 80 μL of supernatant are taken into 96-well assay plates pre-added with 160 μL ultrapure water, and then analyzed by LC-MS/MS. Hepatic extraction ratio (Eh) values were calculated from measured in vitro clearance assuming a human liver blood flow of 20.7 mL/min/kg. Eh values of <0.3 are indicative of compounds with favorable metabolic stability.

[5] = Male CD-1 Mice, PO, 10 mg/kg, 0.5% MC
[6] = Female CD-1 Mice, PO, 10 mg/kg, 0.5% MC, 0.25% Tween 80
[7] = LPS and nigericin stimulated cells, CellTiter-Glo

With `O=C(Nc1c2c(cc3c1CCC3)CCC2)NS(=O)(=O)c1cnn2c1OCC1(CC1)C2` [B] the “Bioavailability (% F)” value (Pharmacokinetics in mice; [5]) was 100 % F, the Cmax (Pharmacokinetics in mice; Male CD-1 Mice, IV, 1 mg/kg) was 11700 ng/mL and the clearance (Pharmacokinetics in mice; Male CD-1 Mice, IV, 1 mg/kg) was 0.833 mL/min/kg. For the same compound, the half-life (Pharmacokinetics in mice; Male CD-1 Mice, IV, 1 mg/kg) was 1.9 h, the AUC(0-t) (Pharmacokinetics in mice; Male CD-1 Mice, IV, 1 mg/kg) was 20200 ng·h/mL and the Vd (Pharmacokinetics in mice; Male CD-1 Mice, IV, 1 mg/kg) was 0.13 L/kg. For the same compound, the Cmax (Pharmacokinetics in mice; [5]) was 63000 ng/mL, the half-life (Pharmacokinetics in mice; [5]) was 1.9 h and the AUC(0-t) (Pharmacokinetics in mice; [5]) was 256000 ng·h/mL.

In the case of `CN(C)[C@H]1COc2c(S(=O)(=O)NC(=O)Nc3c4c(cc5c3CCC5)CCC4)cnn2C1` [C], the “Bioavailability (% F)” value (Pharmacokinetics in mice; [5]) is reported as 33 % F, the Cmax (Pharmacokinetics in mice; Male CD-1 Mice, IV, 1 mg/kg) is reported as 5290 ng/mL and the clearance (Pharmacokinetics in mice; Male CD-1 Mice, IV, 1 mg/kg) is reported as 5.67 mL/min/kg. For the same compound, the half-life (Pharmacokinetics in mice; Male CD-1 Mice, IV, 1 mg/kg) was 1.3 h, the AUC(0-t) (Pharmacokinetics in mice; Male CD-1 Mice, IV, 1 mg/kg) was 2990 ng·h/mL and the Vd (Pharmacokinetics in mice; Male CD-1 Mice, IV, 1 mg/kg) was 0.64 L/kg. It also gave a Cmax (Pharmacokinetics in mice; [5]) of 7530 ng/mL, a half-life (Pharmacokinetics in mice; [5]) of 1 h and an AUC(0-t) (Pharmacokinetics in mice; [5]) of 9950 ng·h/mL.

For `O=C(Nc1c2c(cc3c1CCC3)CCC2)NS(=O)(=O)c1cnn2c1OCC1(COC1)C2` [Compound 5, N-((1,2,3,5,6,7-hexahydro-s-indacen-4-yl)carbamoyl)-5′,7′-dihydrospiro[oxetane-3,6′-pyrazolo[5,1-b][1,3]oxazine]-3′-sulfonamide], the “IL-1β production in Kupffer cells (FIG. 2)” value (NLRP3 inflammasome [1]) was “inhibition” and the “IL-18 production in Kupffer cells (FIG. 2)” value (NLRP3 inflammasome [1]) was “inhibition”.

In the case of `CN[C@H]1COc2c(S(=O)(=O)NC(=O)Nc3c4c(cc5c3CCC5)CCC4)cnn2C1` [D], the “Bioavailability (% F)” value (Pharmacokinetics in mice; [6]) is reported as 69 % F, the Cmax (Pharmacokinetics in mice; Female CD-1 Mice, IV, 1 mg/kg) is reported as 3310 ng/mL and the clearance (Pharmacokinetics in mice; Female CD-1 Mice, IV, 1 mg/kg) is reported as 5 mL/min/kg. For the same compound, the half-life (Pharmacokinetics in mice; Female CD-1 Mice, IV, 1 mg/kg) was 1.6 h, the AUC(0-t) (Pharmacokinetics in mice; Female CD-1 Mice, IV, 1 mg/kg) was 3400 ng·h/mL and the Vd (Pharmacokinetics in mice; Female CD-1 Mice, IV, 1 mg/kg) was 0.69 L/kg. For the same compound, the Cmax (Pharmacokinetics in mice; [6]) was 13700 ng/mL, the half-life (Pharmacokinetics in mice; [6]) was 1.7 h and the AUC(0-t) (Pharmacokinetics in mice; [6]) was 23500 ng·h/mL.

With `COC1CN([C@H]2COc3c(S(=O)(=O)NC(=O)Nc4c5c(cc6c4CCC6)CCC5)cnn3C2)C1` [E] the “Bioavailability (% F)” value (Pharmacokinetics in mice; [6]) was 53 % F, the Cmax (Pharmacokinetics in mice; Female CD-1 Mice, IV, 1 mg/kg) was 2830 ng/mL and the clearance (Pharmacokinetics in mice; Female CD-1 Mice, IV, 1 mg/kg) was 10.7 mL/min/kg. The half-life (Pharmacokinetics in mice; Female CD-1 Mice, IV, 1 mg/kg) was 1.6 h, the AUC(0-t) (Pharmacokinetics in mice; Female CD-1 Mice, IV, 1 mg/kg) was 1570 ng·h/mL and the Vd (Pharmacokinetics in mice; Female CD-1 Mice, IV, 1 mg/kg) was 1.47 L/kg. For the same compound, the Cmax (Pharmacokinetics in mice; [6]) was 8620 ng/mL, the half-life (Pharmacokinetics in mice; [6]) was 1.9 h and the AUC(0-t) (Pharmacokinetics in mice; [6]) was 8270 ng·h/mL.

In the case of `O=C(Nc1c2c(cc3c1CCC3)CCC2)NS(=O)(=O)c1cnn2c1OCCCC2` [drawing 515], the IC50 (NLRP3 inflammasome [2]) is reported as < 100 nM and the IC50 [3, 7] is reported as < 100 nM.

In the case of `CC1CCOc2c(S(=O)(=O)NC(=O)Nc3c4c(cc5c3CCC5)CCC4)cnn21` (stereo not shown) [drawing 516], the IC50 (NLRP3 inflammasome [2]) is reported as < 100 nM and the IC50 [3, 7] is reported as < 100 nM.

With `O=C(Nc1c2c(cc3c1CCC3)CCC2)NS(=O)(=O)c1cnn2c1OCC(F)C2` (stereo not shown) [drawing 517] the IC50 (NLRP3 inflammasome [2]) was 100 to 1000 nM and the IC50 [3, 7] was < 100 nM.

With `COC1COc2c(S(=O)(=O)NC(=O)Nc3c4c(cc5c3CCC5)CCC4)cnn2C1` (stereo not shown) [drawing 518] the IC50 (NLRP3 inflammasome [1]) was < 100 nM, the IC50 (NLRP3 inflammasome [2]) was < 100 nM and the “TNFα IC50 (PBMC or KC)” value (TNFα) was “No Curve”. The IC50 [3, 7] was < 100 nM.

For `CC1CCn2ncc(S(=O)(=O)NC(=O)Nc3c4c(cc5c3CCC5)CCC4)c2O1` (stereo not shown) [drawing 519], the IC50 (NLRP3 inflammasome [1]) was < 100 nM, the IC50 (NLRP3 inflammasome [2]) was 100 to 1000 nM and the “TNFα IC50 (PBMC or KC)” value (TNFα) was “No Curve”.

With `O=C(Nc1c2c(cc3c1CCC3)CCC2)NS(=O)(=O)c1cnn2c1OCC1(CC1)C2` [drawing 528] the IC50 (NLRP3 inflammasome [1]) was < 100 nM, the IC50 (NLRP3 inflammasome [2]) was < 100 nM and the IC50 [3, 7] was < 100 nM. For the same compound, the “Human Microsomal Stability (Eh)” value [4] was 0.6.

With `CN(C)[C@H]1COc2c(S(=O)(=O)NC(=O)Nc3c4c(cc5c3CCC5)CCC4)cnn2C1` [drawing 541] the “TNFα IC50 (PBMC or KC)” value (TNFα) was “No Curve”, the IC50 [3] was < 100 nM and the “Human Microsomal Stability (Eh)” value [4] was 0.2.

In the case of `CN[C@H]1COc2c(S(=O)(=O)NC(=O)Nc3c4c(cc5c3CCC5)CCC4)cnn2C1` [drawing 566], the “TNFα IC50 (PBMC or KC)” value (TNFα) is reported as “No Curve”, the IC50 [3] is reported as < 100 nM and the “Human Microsomal Stability (Eh)” value [4] is reported as <0.1.
